In article PMC13159116, “Affinity‐Based Interactome Mapping of Inositol Pyrophosphates Reveals 4/6‐PP‐InsP5‐Binding Proteins in Plants” (Advanced Science, 2026):

Target: T1, AtFHA2 (Arabidopsis thaliana, UniProt Q9SFV2)
T1 construct: gene FHA2; recombinant AtFHA2 (AT3G07220.1)
T1 sequence (Q9SFV2 2-320): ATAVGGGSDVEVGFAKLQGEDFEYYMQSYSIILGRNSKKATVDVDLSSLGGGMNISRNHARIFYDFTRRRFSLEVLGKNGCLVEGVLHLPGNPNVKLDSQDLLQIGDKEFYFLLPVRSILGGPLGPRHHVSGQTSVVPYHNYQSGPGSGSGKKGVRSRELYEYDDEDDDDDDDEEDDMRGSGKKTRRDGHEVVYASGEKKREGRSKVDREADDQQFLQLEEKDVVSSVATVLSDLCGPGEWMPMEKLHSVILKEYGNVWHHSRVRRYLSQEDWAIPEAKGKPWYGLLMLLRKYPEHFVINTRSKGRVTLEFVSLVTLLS
Assay: isothermal titration calorimetry (ITC) with recombinant protein
Assay type: binding

## O=P(O)(O)O[C@H]1[C@H](OP(=O)(O)O)[C@@H](OP(=O)(O)O)[C@H](OP(=O)(O)OP(=O)(O)O)[C@@H](OP(=O)(O)O)[C@H]1OP(=O)(O)O [compound 4, 4-PP-InsP5]
  Kd: 4.9 ± 2.24 µM

## O=P(O)(O)O[C@H]1[C@H](OP(=O)(O)O)[C@@H](OP(=O)(O)O)[C@H](OP(=O)(O)O)[C@@H](OP(=O)(O)O)[C@H]1OP(=O)(O)O [compound 6, InsP6]
  Kd: > 100 µM
